Test results reported in patent US20120220581A1, “IMIDAZO[1,2-b]PYRIDAZINE DERIVATIVES AND THEIR USE AS PDE10 INHIBITORS” (Janssen-Cilag, S.A., priority 2009, published 2012).

How the values were obtained:
[1] = target: T1, Rat recombinant PDE10A (rPDE10A2) (Rattus norvegicus, UniProt Q9QYJ6); experiment: In vitro assay PDE10A (SPA, 3H-cAMP); assay type: biochemical; details: pIC50 corresponds to the −log IC50 expressed in mol/L; read-out: PDE10A2 pIC50 (converted)
T1 construct: inferred from the Ni metal chelate purification; made in house; host or cells: Sf9 insect cells (baculovirus)
T1 sequence (Q9QYJ6 1-794): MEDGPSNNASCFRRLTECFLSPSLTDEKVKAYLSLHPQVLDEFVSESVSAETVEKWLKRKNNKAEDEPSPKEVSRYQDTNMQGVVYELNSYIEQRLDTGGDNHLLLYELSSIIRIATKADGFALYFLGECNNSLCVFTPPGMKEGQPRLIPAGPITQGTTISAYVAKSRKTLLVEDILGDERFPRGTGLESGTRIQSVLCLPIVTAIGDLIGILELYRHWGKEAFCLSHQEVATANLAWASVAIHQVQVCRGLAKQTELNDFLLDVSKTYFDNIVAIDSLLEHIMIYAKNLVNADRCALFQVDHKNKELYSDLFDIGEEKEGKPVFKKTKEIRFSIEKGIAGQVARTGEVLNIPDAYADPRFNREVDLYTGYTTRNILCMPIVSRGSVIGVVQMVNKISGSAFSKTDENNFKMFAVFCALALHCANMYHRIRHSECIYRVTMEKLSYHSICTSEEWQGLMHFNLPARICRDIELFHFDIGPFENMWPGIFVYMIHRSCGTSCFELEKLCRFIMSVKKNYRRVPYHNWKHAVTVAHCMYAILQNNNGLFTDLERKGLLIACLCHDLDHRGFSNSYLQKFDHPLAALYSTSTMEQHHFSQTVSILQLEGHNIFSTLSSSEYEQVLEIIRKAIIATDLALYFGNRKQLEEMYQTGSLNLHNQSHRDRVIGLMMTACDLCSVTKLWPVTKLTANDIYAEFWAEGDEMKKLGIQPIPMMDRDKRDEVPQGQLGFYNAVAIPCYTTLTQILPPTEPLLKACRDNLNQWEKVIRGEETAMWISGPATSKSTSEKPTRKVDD
Method: Rat recombinant PDE10A (rPDE10A2) was expressed in Sf9 cells using a recombinant rPDE10A baculovirus construct. Cells were harvested after 48 h of infection and the rPDE10A protein was purified by metal chelate chromatography on Ni-sepharose 6FF. Tested compounds were dissolved and diluted in 100% DMSO to a concentration 100 fold of the final concentration in the assay. Compound dilutions (0.4 μl) were added in 384 well plates to 20 μl of incubation buffer (50 mM Tris pH 7.8, 8.3 mM MgCl2, 1.7 mM EGTA). 10 μl of rPDE10A enzyme in incubation buffer was added and the reaction was started by addition of 10 μl substrate to a final concentration of 60 nM cAMP and 0.008 μCi ^3H-cAMP. The reaction was incubated for 60 minutes at room temperature. […] After sedimentation of the beads during 30 minutes the radioactivity was measured in a Perkin Elmer Topcount scintillation counter and results were expressed as cpm. For blanc values the enzyme was omitted from the reaction and replaced by incubation buffer. Control values were obtained by addition of a final concentration of 1% DMSO instead of compound. The same assay principle is applied for the measurement of the affinity of the compound for other members of the PDE family with appropriate modifications in incubation buffer, substrate concentration, incubation time and stop solution.

[2] = tested on: apomorphine-induced stereotypy in rats; experiment: Apomorphine-induced stereotypy in rats (APO); assay type: in vivo; details: Rattus norvegicus, n.d.: found not active at threshold dose 2.5 mg/kg or 10 mg/kg (a)
Method: Apomorphine (1.0 mg/kg, i.v.)-induced stereotypy (compulsive sniffing, licking, chewing) was scored every 5 min over the first hour after injection of apomorphine, following a 1 hour interval pre-treatment with the test compound. The score system was: (3) pronounced, (2) moderate, (1) slight, and (0) absent.

IC50 [1]	Structure (SMILES)	ED50 ([2]; not further tested)	ED50 ([2]; po, * not soluble, tested orally as a suspension)
50.1 nM	COC(C)(C)Cc1ccc(-c2c(C3CC3)nc3c(N4CCOCC4)ccnn23)cn1 [compound 45, 2-cyclopropyl-3-[6-(2-methoxy-2-methylpropyl)-3-pyridinyl]-8-(4-morpholinyl)-imidazo[1,2-b]pyridazine]	> 2.5 mg/kg	–
17.4 nM	c1cc(-c2ccnn3c(-c4ccc(N5CCOCC5)nc4)c(C4CC4)nc23)ccn1 [compound 46, 2-cyclopropyl-3-[6-(4-morpholinyl)-3-pyridinyl]-8-(4-pyridinyl)-imidazo[1,2-b]pyridazine]	> 2.5 mg/kg	–
91.2 nM	COC(C)(C)Cc1ccc(-c2c(C)nc3c(N4CCOCC4)cc(C)nn23)cn1 [compound 47, 3-[6-(2-methoxy-2-methylpropyl)-3-pyridinyl]-2,6-dimethyl-8-(4-morpholinyl)-imidazo[1,2-b]pyridazine]	> 2.5 mg/kg	–
209 nM	COCCOc1ccc(-c2c(C)nc3c(-c4ccncc4)cc(C)nn23)cn1 [compound 49, 3-[6-(2-methoxyethoxy)-3-pyridinyl]-2,6-dimethyl-8-(4-pyridinyl)-imidazo[1,2-b]pyridazine]	> 2.5 mg/kg	–
105 nM	COC(C)(C)Cc1ccc(-c2cnc3c(N4CCOCC4)ccnn23)cn1 [compound 51, 3-[6-(2-methoxy-2-methylpropyl)-3-pyridinyl]-8-(4-morpholinyl)-imidazo[1,2-b]pyridazine]	> 2.5 mg/kg	–
468 nM	COCCOc1ccc(-c2cnc3c(N4CCOCC4)ccnn23)cn1 [compound 52, 3-[6-(2-methoxyethoxy)-3-pyridinyl]-8-(4-morpholinyl)-imidazo[1,2-b]pyridazine]	> 2.5 mg/kg	–
214 nM	COC(C)(C)Cc1ccc(-c2c(C3CC3)nc3c(N4CCOCC4)cc(C)nn23)cn1 [compound 53, 2-cyclopropyl-3-[6-(2-methoxy-2-methylpropyl)-3-pyridinyl]-6-methyl-8-(4-morpholinyl)-imidazo[1,2-b]pyridazine]	> 2.5 mg/kg	–
38 nM	COC(C)(C)Cc1ccc(-c2c(C3CC3)nc3c(-c4ccncc4)cc(C)nn23)cn1 [compound 55, 2-cyclopropyl-3-[6-(2-methoxy-2-methylpropyl)-3-pyridinyl]-6-methyl-8-(4-pyridinyl)-imidazo[1,2-b]pyridazine]	> 2.5 mg/kg	–
51.3 nM	COCCc1ccc(-c2c(C3CC3)nc3c(-c4ccncc4)cc(C)nn23)cn1 [compound 56, 2-cyclopropyl-3-[6-(2-methoxyethyl)-3-pyridinyl]-6-methyl-8-(4-pyridinyl)-imidazo[1,2-b]pyridazine]	> 2.5 mg/kg	–
186 nM	Cc1nc2c(-c3ccncc3)cc(C3CC3)nn2c1-c1ccc(N2CCOCC2)nc1 [compound 58, 6-cyclopropyl-2-methyl-3-[6-(4-morpholinyl)-3-pyridinyl]-8-(4-pyridinyl)-imidazo[1,2-b]pyridazine]	> 2.5 mg/kg	–
234 nM	COCCOc1ccc(-c2c(C)nc3c(-c4ccncc4)cc(C4CC4)nn23)cn1 [compound 59, 6-cyclopropyl-3-[6-(2-methoxyethoxy)-3-pyridinyl]-2-methyl-8-(4-pyridinyl)-imidazo[1,2-b]pyridazine]	> 2.5 mg/kg	–
191 nM	COC(C)(C)Cc1ccc(-c2cnc3c(-c4ccncc4)ccnn23)cn1 [compound 60, 3-[6-(2-methoxy-2-methylpropyl)-3-pyridinyl]-8-(4-pyridinyl)-imidazo[1,2-b]pyridazine]	> 2.5 mg/kg	–
479 nM	COCCc1ccc(-c2c(C)nc3c(N4CCOCC4)cc(C(F)(F)F)nn23)cn1 [compound 64, 3-[6-(2-methoxyethyl)-3-pyridinyl]-2-methyl-8-(4-morpholinyl)-6-(trifluoromethyl)-imidazo[1,2-b]pyridazine]	–	> 2.5 mg/kg
324 nM	COCCOc1ccc(-c2c(C)nc3c(N4CCOCC4)cc(C)nn23)cn1 [compound 69, 3-[6-(2-methoxyethoxy)-3-pyridinyl]-2,6-dimethyl-8-(4-morpholinyl)-imidazo[1,2-b]pyridazine]	> 2.5 mg/kg	–
126 nM	Cc1cc(-c2ccncc2)c2nc(C)c(-c3ccc(N4CCOCC4)nc3)n2n1 [compound 70, 2,6-dimethyl-3-[6-(4-morpholinyl)-3-pyridinyl]-8-(4-pyridinyl)-imidazo[1,2-b]pyridazine]	> 2.5 mg/kg	–
97.7 nM	COCCOc1ccc(-c2c(C3CC3)nc3c(N4CCOCC4)ccnn23)cn1 [compound 73, 2-cyclopropyl-3-[6-(2-methoxyethoxy)-3-pyridinyl]-8-(4-morpholinyl)-imidazo[1,2-b]pyridazine]	> 2.5 mg/kg	–
50.1 nM	Cc1nc2c(N3CCOCC3)ccnn2c1-c1ccc(CCOC(C)C)nc1 [compound 76, 2-methyl-3-[6-[2-(1-methylethoxy)ethyl]-3-pyridinyl]-8-(4-morpholinyl)-imidazo[1,2-b]pyridazine]	> 2.5 mg/kg	–
129 nM	Cc1nc2c(N3CCOCC3)ccnn2c1-c1ccc(CCN2CCCC2)nc1 [compound 77, 2-methyl-8-(4-morpholinyl)-3-[6-[2-(1-pyrrolidinyl)ethyl]-3-pyridinyl]-imidazo[1,2-b]pyridazine]	> 2.5 mg/kg	–
123 nM	Cc1nc2c(N3CCOCC3)cc(C3CC3)nn2c1-c1ccc(C2CCOCC2)nc1 [compound 78, 6-cyclopropyl-2-methyl-8-(4-morpholinyl)-3-[6-(tetrahydro-2H-pyran-4-yl)-3-pyridinyl]-imidazo[1,2-b]pyridazine]	> 2.5 mg/kg	–
263 nM	Cc1cc(N2CCOCC2)c2nc(C3CC3)c(-c3ccc(C4CCOCC4)nc3)n2n1 [compound 79, 2-cyclopropyl-6-methyl-8-(4-morpholinyl)-3-[6-(tetrahydro-2H-pyran-4-yl)-3-pyridinyl]-imidazo[1,2-b]pyridazine]	> 2.5 mg/kg	–
44.7 nM	Cc1cc(-c2ccncc2)c2nc(C3CC3)c(-c3ccc(C4CCOCC4)nc3)n2n1 [compound 80, 2-cyclopropyl-6-methyl-8-(4-pyridinyl)-3-[6-(tetrahydro-2H-pyran-4-yl)-3-pyridinyl]-imidazo[1,2-b]pyridazine]	> 2.5 mg/kg	–
195 nM	Cc1nc2c(-c3ccncc3)cc(C3CC3)nn2c1-c1ccc(C2CCOCC2)nc1 [compound 81, 6-cyclopropyl-2-methyl-8-(4-pyridinyl)-3-[6-(tetrahydro-2H-pyran-4-yl)-3-pyridinyl]-imidazo[1,2-b]pyridazine]	> 2.5 mg/kg	–
145 nM	c1cc(N2CCOCC2)c2ncc(-c3ccc(C4CCOCC4)nc3)n2n1 [compound 82, 8-(4-morpholinyl)-3-[6-(tetrahydro-2H-pyran-4-yl)-3-pyridinyl]-imidazo[1,2-b]pyridazine]	> 2.5 mg/kg	–
51.3 nM	CCc1ccc(-c2c(C)nc3c(-c4ccncc4)ccnn23)cn1 [compound 83, 3-(6-ethyl-3-pyridinyl)-2-methyl-8-(4-pyridinyl)-imidazo[1,2-b]pyridazine]	> 2.5 mg/kg	–
263 nM	CCc1ccc(-c2c(C)nc3c(-c4ccncc4)cc(C4CC4)nn23)cn1 [compound 86, 6-cyclopropyl-3-(6-ethyl-3-pyridinyl)-2-methyl-8-(4-pyridinyl)-imidazo[1,2-b]pyridazine]	> 2.5 mg/kg	–
21.9 nM	CCc1ccc(-c2c(C3CC3)nc3c(-c4ccncc4)ccnn23)cn1 [compound 87, 2-cyclopropyl-3-(6-ethyl-3-pyridinyl)-8-(4-pyridinyl)-imidazo[1,2-b]pyridazine]	> 2.5 mg/kg	–
